Data published in patent publication US9073821B2, “Hydroxamic acid derivative” (priority 2010, dated 2015).

Target: Pseudomonas aeruginosa LpxC enzyme (Pseudomonas aeruginosa (strain ATCC 15692 / DSM 22644 / CIP 104116 / JCM 14847 / LMG 12228 / 1C / PRS 101 / PAO1), UniProt P47205)
Assay: biochemical
Format: biochemical
Details: inhibitory activity on Pseudomonas aeruginosa LpxC enzyme, class symbols A/B/C; read-out: Enzyme inhibitory activity

IC50, < 10 nM:
CNC(=O)C(C(=O)NO)N(C)C(=O)c1ccc(C#Cc2ccc(CCN3CCCOCC3)cc2)cc1 (stereo not drawn) [Compound 207, N-hydroxy-N′-methyl-2-{methyl[4-({4-[2-(1,4-oxazepan-4-yl)ethyl]phenyl}ethynyl)benzoyl]amino}propanediamide]
CNC(=O)C(C(=O)NO)N(C)C(=O)c1ccc(-c2ccc(OCCCN3CCOCC3)c(F)c2)cc1 (stereo not drawn) [Compound 208, 2-[({3′-fluoro-4′-[3-(morpholin-4-yl)propoxy]biphenyl-4-yl}carbonyl)(methyl)amino]-N-hydroxy-N′-methylpropanediamide]
CNC(=O)C(C(=O)NO)N(C)C(=O)c1ccc(CCc2ccc(CCN3CCOCC3)cc2)cc1 (stereo not drawn) [Compound 209, N-hydroxy-N′-methyl-2-{methyl[4-(2-{4-[2-(morpholin-4-yl)ethyl]phenyl}ethyl)benzoyl]amino}propanediamide]
CCCOc1ccc(-c2ccc(C(=O)N(C)C(C(=O)NC)C(=O)NO)cc2)cc1 (stereo not drawn) [Compound 212, N-hydroxy-N′-methyl-2-{methyl[(4′-propoxybiphenyl-4-yl)carbonyl]amino}propanediamide]
CNC(=O)C(C(=O)NO)N(C)C(=O)c1ccc(-c2ccc(OC(C)C)cc2)cc1 (stereo not drawn) [Compound 213, N-hydroxy-N′-methyl-2-(methyl {[4′-(propan-2-yloxy)biphenyl-4-yl]carbonyl}amino)propanediamide]
CNC(=O)C(C(=O)NO)N(C)C(=O)c1ccc(-c2ccc(OCC(C)C)cc2)cc1 (stereo not drawn) [Compound 214, N-hydroxy-N′-methyl-2-(methyl {[4′-(2-methylpropoxy)biphenyl-4-yl]carbonyl}amino)propanediamide]
CNC(=O)C(C(=O)NO)N(C)C(=O)c1ccc(-c2ccc(OCCCCOC)cc2)cc1 (stereo not drawn) [Compound 215, N-hydroxy-2-[{[4′-(4-methoxybutoxy)biphenyl-4-yl]carbonyl}(methyl)amino]-N′-methylpropanediamide]
CNC(=O)C(C(=O)NO)N(C)C(=O)c1ccc(-c2ccc(OC)c(F)c2)cc1 (stereo not drawn) [Compound 216, 2-{[(3′-fluoro-4′-methoxybiphenyl-4-yl)carbonyl](methyl)amino}-N-hydroxy-N′-methylpropanediamide]
CNC(=O)C(C(=O)NO)N(C)C(=O)c1ccc(C#Cc2ccc(OC)nc2)cc1 (stereo not drawn) [Compound 219, N-hydroxy-2-[{4-[(6-methoxypyridin-3-yl)ethynyl]benzoyl}(methyl)amino]-N′-methylpropanediamide]
CNC(=O)C(C(=O)NO)N(C)C(=O)c1ccc(-c2ccc(CCCCN3CCOCC3)cc2)cc1 (stereo not drawn) [Compound 221, N-hydroxy-N′-methyl-2-[methyl({4′-[4-(morpholin-4-yl)butyl]biphenyl-4-yl}carbonyl)amino]propanediamide]
CNC(=O)C(C(=O)NO)N(C)C(=O)c1ccc(-c2ccc(F)c(Cl)c2)cc1 (stereo not drawn) [Compound 223, 2-{[(3′-chloro-4′-fluorobiphenyl-4-yl)carbonyl](methyl)amino}-N-hydroxy-N′-methylpropanediamide]
CNC(=O)C(C(=O)NO)N(C)C(=O)c1ccc(-c2ccc(Cl)c(Cl)c2)cc1 (stereo not drawn) [Compound 224, 2-{[(3′,4′-dichlorobiphenyl-4-yl)carbonyl](methyl)amino}-N-hydroxy-N′-methylpropanediamide]
CNC(=O)C(C(=O)NO)N(CC(F)F)C(=O)c1ccc(-c2ccc(OCCCN3CCOCC3)cc2)cc1 (stereo not drawn) [Compound 225, 2-[(2,2-difluoroethyl)({4′-[3-(morpholin-4-yl)propoxy]biphenyl-4-yl}carbonyl)amino]-N-hydroxy-N′-methylpropanediamide]
CNC(=O)C(C(=O)NO)N(C)C(=O)c1ccc(-c2ccc(NC)cc2F)cc1 (stereo not drawn) [Compound 226, 2-[{[2′-fluoro-4′-(methylamino)biphenyl-4-yl]carbonyl}(methyl)amino]-N-hydroxy-N′-methylpropanediamide]
CNC(=O)C(C(=O)NO)N(C)C(=O)c1ccc(-c2ccc(NC)c(Cl)c2)cc1 (stereo not drawn) [Compound 227, 2-[{[3′-chloro-4′-(methylamino)biphenyl-4-yl]carbonyl}(methyl)amino]-N-hydroxy-N′-methylpropanediamide]
CNC(=O)C(C(=O)NO)N(C)C(=O)c1ccc(-c2ccc(NCCCOC)cc2)cc1 (stereo not drawn) [Compound 228, N-hydroxy-2-[({4′-[(3-methoxypropyl)amino]biphenyl-4-yl}carbonyl)(methyl)amino]-N′-methylpropanediamide]
CNC(=O)C(C(=O)NO)N(C)C(=O)c1ccc(-c2ccc(N3CC(OC)C3)cc2)cc1 (stereo not drawn) [Compound 229, N-hydroxy-2-[{[4′-(3-methoxyazetidin-1-yl)biphenyl-4-yl]carbonyl}(methyl)amino]-N′-methylpropanediamide]
CCNc1ccc(-c2ccc(C(=O)N(C)C(C(=O)NC)C(=O)NO)cc2)cc1F (stereo not drawn) [Compound 230, 2-[{[4′-(ethylamino)-3′-fluorobiphenyl-4-yl]carbonyl}(methyl)amino]-N-hydroxy-N′-methylpropanediamide]
CCCNc1ccc(-c2ccc(C(=O)N(C)C(C(=O)NC)C(=O)NO)cc2)cc1F (stereo not drawn) [Compound 231, 2-[{[3′-fluoro-4′-(propylamino)biphenyl-4-yl]carbonyl}(methyl)amino]-N-hydroxy-N′-methylpropanediamide]
CNC(=O)C(C(=O)NO)N(C)C(=O)c1ccc(C#Cc2ccc(CN3CCCCC3)cc2)cc1 (stereo not drawn) [Compound 234, N-hydroxy-N′-methyl-2-[methyl(4-{[4-(piperidin-1-ylmethyl)phenyl]ethynyl}benzoyl)amino]propanediamide]
CCN(C(=O)c1ccc(-c2ccc(NC)cc2)cc1)C(C(=O)NC)C(=O)NO (stereo not drawn) [Compound 235, 2-(ethyl {[4′-(methylamino)biphenyl-4-yl]carbonyl}amino)-N-hydroxy-N′-methylpropanediamide]
CNC(=O)C(C(=O)NO)N(C)C(=O)c1ccc(-c2ccc(CCN3CCOCC3)cc2)cc1 (stereo not drawn) [Compound 236, N-hydroxy-N′-methyl-2-[methyl({4′-[2-(morpholin-4-yl)ethyl]biphenyl-4-yl}carbonyl)amino]propanediamide]
CNC(=O)C(C(=O)NO)N(C)C(=O)c1ccc(-c2ccc(CCF)cc2)cc1 (stereo not drawn) [Compound 238, 2-[{[4′-(2-fluoroethyl)biphenyl-4-yl]carbonyl}(methyl)amino]-N-hydroxy-N′-methylpropanediamide]
CCCNc1ccc(-c2ccc(C(=O)N(C)C(C(=O)NC)C(=O)NO)cc2)cc1 (stereo not drawn) [Compound 245, N-hydroxy-N′-methyl-2-(methyl {[4′-(propylamino)biphenyl-4-yl]carbonyl}amino)propanediamide]

IC50, 10 to 100 nM:
CNC(=O)C(C(=O)NO)N(C)C(=O)c1ccc(CCc2ccc(CCN3CCCOCC3)cc2)cc1 (stereo not drawn) [Compound 210, N-hydroxy-N′-methyl-2-{methyl[4-(2-{4-[2-(1,4-oxazepan-4-yl)ethyl]phenyl}ethyl)benzoyl]amino}propanediamide]
CNC(=O)C(C(=O)NO)N(C)C(=O)c1ccc(-c2ccc(OCCCNC3CC3)cc2)cc1 (stereo not drawn) [Compound 217, 2-[({4′-[3-(cyclopropylamino)propoxy]biphenyl-4-yl}carbonyl)(methyl)amino]-N-hydroxy-N′-methylpropanediamide]
CNC(=O)C(C(=O)NO)N(C)C(=O)c1ccc(-c2cc(F)c(F)c(F)c2)cc1 (stereo not drawn) [Compound 220, N-hydroxy-N′-methyl-2-{methyl[(3′,4′,5′-trifluorobiphenyl-4-yl)carbonyl]amino}propanediamide]
CNC(=O)C(C(=O)NO)N(C)C(=O)c1ccc(-c2cc(Cl)cc(Cl)c2)cc1 (stereo not drawn) [Compound 222, 2-{[(3′,5′-dichlorobiphenyl-4-yl)carbonyl](methyl)amino}-N-hydroxy-N′-methylpropanediamide]
CNC(=O)C(C(=O)NO)N(C)C(=O)c1ccc(-c2ccc(CN3CCOCC3)cc2)cc1 (stereo not drawn) [Compound 232, N-hydroxy-N′-methyl-2-(methyl {[4′-(morpholin-4-ylmethyl)biphenyl-4-yl]carbonyl}amino)propanediamide]
CNC(=O)C(C(=O)NO)N(C)C(=O)c1ccc(-c2c(F)cccc2F)cc1 (stereo not drawn) [Compound 233, 2-{[(2′,6′-difluorobiphenyl-4-yl)carbonyl](methyl)amino}-N-hydroxy-N′-methylpropanediamide]
CNC(=O)C(C(=O)NO)N(C)C(=O)c1ccc(-c2ccc(CN(C)C(C)=O)cc2)cc1 (stereo not drawn) [Compound 239, 2-{[(4′-{[acetyl(methyl)amino]methyl}biphenyl-4-yl)carbonyl](methyl)amino}-N-hydroxy-N′-methylpropanediamide]
CNC(=O)C(C(=O)NO)N(C)C(=O)c1ccc(-c2ccc(C(C)(C)C)cc2)cc1 (stereo not drawn) [Compound 240, 2-{[(4′-tert-butylbiphenyl-4-yl)carbonyl](methyl)amino}-N-hydroxy-N′-methylpropanediamide]
CNC(=O)C(C(=O)NO)N(C)C(=O)c1ccc(-c2ccc(CNC(C)=O)cc2)cc1 (stereo not drawn) [Compound 241, 2-[({4′-[(acetylamino)methyl]biphenyl-4-yl}carbonyl)(methyl)amino]-N-hydroxy-N′-methylpropanediamide]
CCNC(=O)C(C(=O)NO)N(C)C(=O)c1ccc(-c2ccccc2)cc1 (stereo not drawn) [Compound 242, 2-[(biphenyl-4-ylcarbonyl)(methyl)amino]-N-ethyl-N′-hydroxypropanediamide]
CNC(=O)C(C(=O)NO)N(C)C(=O)c1ccc(-c2ccc(OCCN3CCOCC3)cc2)cc1 (stereo not drawn) [Compound 243, N-hydroxy-N′-methyl-2-[methyl({4′-[2-(morpholin-4-yl)ethoxy]biphenyl-4-yl}carbonyl)amino]propanediamide]
CNC(=O)C(C(=O)NO)N(C)C(=O)c1ccc(-c2ccc(N3CC(O)C3)cc2)cc1 (stereo not drawn) [Compound 244, N-hydroxy-2-[{[4′-(3-hydroxyazetidin-1-yl)biphenyl-4-yl]carbonyl}(methyl)amino]-N′-methylpropanediamide]
